Laboratory results as given in patent US20260158092A1, “COMPOSITION COMPRISING AT LEAST ONE CANNABIS EXTRACT FOR USE IN THE TREATMENT OF AN INFLAMMATORY BOWEL DISEASE” (LINNEA SA, priority 2022, published 2026).
Entries after “also recorded” stand apart in the source; their conditions may differ.

Legend:
CCL-20 = CCL-20 release by the colonocyte (ELISA); type: cell-based, human; settings: IL-1β/IFN-γ, extracts subjected to digestion 100 μg/mL, cannabinoids 8 μM
Procedure: (§1) FIGS. 18A, 18B, 18C and 18D: Effect of the extracts 5 and 6 subjected to intestinal digestion (5d, 6d) and of the cannabinoids (CBD, CBG) on the release of inflammatory mediators (CXCL-9, CXCL-10, CCL-20, IL-15) by the colonocyte. The extracts (100 μg/mL) and the isolated molecules (8 μM) were used in the treatment concomitant with pro-inflammatory stimulation (IL-1β/IFN-γ), arbitrarily placed at 100% . * p<0.05; ** p<0.01; *** p<0.001 (one-way ANOVA test) vs IL-1β/IFN-γ. The data are the mean±SEM of at least three duplicate experiments.
(§2) Consequently, the effect of the extracts at the protein level, especially in the colonocyte, was evaluated by ELISA assays for inflammatory mediators selected starting from the transcriptional data. All mediators are regulated by NF-κB.

[1] = test system: human microbiota of fecal origin; assay: Prebiotic effect: butyric acid (SCFA) production after fecal fermentation; settings: for butyric acid (SCFA) production, Mean (n = 4): LC-MS analysis, human microbiota of fecal origin
Procedure: In the last phase of the project, the prebiotic effect of the extracts 5 and 6 towards enteric bacterial strains was evaluated by means of fecal fermentation followed by gene analysis of selected strains.
Following fermentation of the extracts, the level of butyric acid produced by the intestinal flora was measured as an indicator of SCFA production. The reliability of the quantitative analysis was reinforced by two different techniques, namely an ELISA assay and mass spectrometry.
Table 2 below reports the prebiotic effect of the extracts 5 and 6 subjected to intestinal digestion (5d, 6d) and of the cannabinoids (CBD, CBG) in terms of induction of butyric acid (SCFA) production by the human microbiota of fecal origin. The result is expressed in μg/mL (LC-MS analysis).

CXCL10 = CXCL10 secretion in undifferentiated CaCo-2 cells (colonocytes) under pro-inflammatory stimulation; type: cell-based, human; settings: cannabinoids 8 μM; for CXCL-10 release: colonocyte, IL-1β/IFN-γ, Phase 3, extracts subjected to digestion 100 μg/mL; for CXCL10 secretion: colonocytes, 10 ng/mL IFNγ and 10 ng/mL IL-1β, 24 hours, extracts 100 μg/mL
Procedure: Firstly, the individual cannabinoids CBD and CBG in undifferentiated cells (colonocytes) were analysed by comparing two different pro-inflammatory mixtures, in order to simplify the pro-inflammatory stimulation and the activation pathways involved. The pro-inflammatory mixture 50 ng/mL TNFα, 10 ng/mL LPS, 50 ng/ml IFNγ and 25 ng/ml IL-1ß mimics an inflammatory disease with a bacterial aetiology and was compared with a less complex mixture, consisting of 10 ng/mL IFNγ and 10 ng/mL IL-1β, deprived of the “bacterial” component, therefore more characteristic of an advanced inflammatory disease.
From the analysis of the pro-inflammatory genes most regulated by the application of the pro-inflammatory mixture, chemokines of the CXC family particularly over-expressed in the enterocyte and colonocyte emerged (FIG. 4).
The used concentration of the cannabinoids (8 μM) corresponds to a quantity equal to […] in the extracts at a concentration of 100 μg/mL.
Based on the results obtained, the effects of the different extracts were evaluated using the pro-inflammatory stimulation consisting of 10 ng/mL IFNγ and 10 ng/mL IL-1β.
as §2

[2] = test system: undifferentiated CaCo-2 cells (colonocytes); assay: Cytotoxicity / cell viability (MTT) in colonocytes
Procedure: Firstly, the cytotoxicity of the extracts in the undifferentiated CaCo-2 cells (colonocytes) at 100 μg/mL was evaluated.
In the first phase of the work, the combination of IL-1β (10 ng/ml) and IFN-γ (10 ng/mL) was selected as pro-inflammatory stimulation. During the third experimental phase, the cytotoxicity of the extracts in both colonocytes and enterocytes was compared, using this pro-inflammatory cocktail.

CXCL-9, CXCL-10 = assay: Release of inflammatory mediators (CXCL-9, CXCL-10) by the enterocyte; type: cell-based, human; settings: enterocyte model; IL-1β/IFN-γ; extracts subjected to digestion 100 μg/mL, cannabinoids 8 μM
Procedure: FIG. 19: Effect of the extracts 5 and 6 subjected to intestinal digestion (5d, 6d) and of the cannabinoids (CBD, CBG) on the release of inflammatory mediators (CXCL-9, CXCL-10) by the enterocyte. The extracts (100 μg/mL) and the isolated molecules (8 μM) were used in the treatment concomitant with pro-inflammatory stimulation (IL-1β/IFN-γ), arbitrarily placed at 100% . * p<0.05; ** p<0.01; *** p<0.001 (one-way ANOVA test) vs IL-1β/IFN-γ. The data are the mean±SEM of at least three duplicate experiments.
The same was highlighted with the use of pure cannabinoids. In analogy with the colonocyte, the release of IL-15 was found not relevant in the enterocyte model, compared to an increase at the transcriptional level.

CXCL-9 = CXCL-9 release by the colonocyte (ELISA); type: cell-based, human; settings: IL-1β/IFN-γ, extracts subjected to digestion 100 μg/mL, cannabinoids 8 μM
Procedure: as §1, §2

NF-κB = settings: human HaCaT keratinocytes; micromolar concentrations; DOI: 10.1002/ptr.6400; cited from earlier work
[3] = test system: NF-κB transcription factor; assay: NF-κB driven transcription, luciferase reporter plasmid in colonocytes; type: cell-based, human; settings: 10 ng/mL IFNγ and 10 ng/mL IL-1β, 6 hours, extracts 100 μg/mL, cannabinoids 8 μM
Source text: The use of this promoter allows the effect of the extracts/active molecules on transcription driven by this transcription factor to be observed.

Compound	CCL-20 release (CCL-20)	butyric acid (SCFA) production, Mean (n = 4) [1]	CXCL-10 release (CXCL10)	CXCL10 secretion (CXCL10)	cell viability / cytotoxicity (MTT) ([2]; 10 ng/mL IFNγ and 10 ng/mL IL-1β, 24 hours, extracts 100 μg/mL, cannabinoids 8 μM)	reduction in viability (MTT) ([2]; IL-1β/IFN-γ, 8 μM)	release of inflammatory mediators (CXCL-9, CXCL-10)	CXCL-9 release (CXCL-9)	effect on NF-κB transcription factor (NF-κB)	NF-κB driven transcription [3]	increase in butyric acid levels ([1]; fecal fermentation)
C=C(C)[C@@H]1CCC(C)=C[C@H]1c1c(O)cc(CCCCC)cc1O [CBD, cannabidiol]	more or less marked inhibitory effect on all the mediators	212.20 µg/mL	more or less marked inhibitory effect on all the mediators	reduced CXCL10 secretion; also recorded: more active than CBG	slight reduction in cell viability	−25%	never showed inhibitory effects	more or less marked inhibitory effect on all the mediators	inhibitory effect		
CCCCCc1cc(O)c(C/C=C(\C)CCC=C(C)C)c(O)c1 [CBG, cannabigerol]		173.54 µg/mL	participate in the inhibitory activity	reduced CXCL10 secretion			never showed inhibitory effects	participate in the inhibitory activity		more active than CBD	
Inulin		638.87 µg/mL									5 times
